# Measurements from ChEMBL document CHEMBL5346912, “Discovery of 3,5-diaryl-1H-pyrazol-based ureas as potent RET inhibitors” (Eur J Med Chem, 2023).
# The source made the active and inactive calls. The rule behind the calls is not given here.
# Legend:
# [1] = Toxicity in CB17-SCID mouse model xenografted with mouse BaF3 cells expressing CCDC6-RET-V804M assessed as animal mortality at 30 to 60 mg/kg, po qd via gavage for 14 days; assay type: organism-based; settings: in vivo, 336 h, dose 30-60 mg/kg, time 14 day
# [2] = molecular target: Proto-oncogene tyrosine-protein kinase receptor Ret (Mus musculus) (UniProt P35546); assay: Inhibition of RET signalling pathway in mouse BaF3 cells harboring CCDC6-RET assessed as suppression of SHC activation at 33.3 nM incubated for 4 hrs by Western blot analysis; assay type: cell-based
# [3] = molecular target: T1, Proto-oncogene tyrosine-protein kinase receptor Ret (Homo sapiens, UniProt P07949); assay: Inhibition of RET (unknown origin) by DiscoverX KINOMEscan assay
# [4] = molecular target: T1, Proto-oncogene tyrosine-protein kinase receptor Ret; assay: Binding affinity to RET (unknown origin) assessed as dissociation constant in presence of ATP by FRET based Z'-Lyte assay
# BaF3 [5] = assay: Antiproliferative activity against mouse BaF3 cells expressing CCDC6-RET-G810C incubated for 72 hrs by CCK8 assay; assay type: functional, cell-based; settings: BaF3, 72 h
# [6] = molecular target: Mast/stem cell growth factor receptor Kit (Homo sapiens, UniProt P10721); assay: Inhibition of KIT (unknown origin) by DiscoverX KINOMEscan assay
# [7] = AUC (0 to infinity) in fasted Sprague-Dawley rat at 25 mg/kg, po; assay type: ADME, organism-based; set-up: dose 25 mg/kg, route po; settings: in vivo
# [8] = Cmax in fasted Sprague-Dawley rat at 25 mg/kg, po; assay type: ADME, organism-based; set-up: dose 25 mg/kg, route po; settings: in vivo
# [9] = Half life in fasted Sprague-Dawley rat at 25 mg/kg, po; assay type: ADME, organism-based; settings: in vivo
# [10] = molecular target: Proto-oncogene tyrosine-protein kinase receptor Ret (Mus musculus) (UniProt P35546); assay: Inhibition of RET signalling pathway in mouse BaF3 cells harboring CCDC6-RET-V804M mutant assessed as suppression of SHC activation at 33.3 nM incubated for 4 hrs by Western blot analysis; assay type: cell-based
# [11] = Cmax in Sprague-Dawley rat at 5 mg/kg, iv; assay type: ADME, organism-based; set-up: dose 5 mg/kg, route iv; settings: in vivo
# BaF3 [12] = assay: Antiproliferative activity against mouse BaF3 cells expressing CCDC6-RET-V804M incubated for 72 hrs by CCK8 assay; assay type: functional, cell-based; settings: BaF3, 72 h
# [13] = molecular target: Proto-oncogene tyrosine-protein kinase receptor Ret (Mus musculus) (UniProt P35546); assay: Inhibition of RET signalling pathway in mouse BaF3 cells harboring CCDC6-RET-G810C mutant assessed as suppression of RET activation incubated for 4 hrs by Western blot analysis; assay type: cell-based; settings: dose <= 300.0 nM
# BaF3 [14] = assay: cells; settings: Mus musculus, BaF3, 72 h
# Description: Antiproliferative activity against mouse BaF3 cells incubated for 72 hrs by CCK8 assay
# [15] = molecular target: Proto-oncogene tyrosine-protein kinase receptor Ret (Mus musculus) (UniProt P35546); assay: Inhibition of RET signalling pathway in mouse BaF3 cells harboring CCDC6-RET-G810C mutant assessed as suppression of SHC activation incubated for 4 hrs by Western blot analysis; assay type: cell-based; settings: dose <= 300.0 nM
# [16] = molecular target: Proto-oncogene tyrosine-protein kinase receptor Ret (Homo sapiens, UniProt P07949, V804M); assay: Inhibition of RET V804M mutant (unknown origin) by DiscoverX KINOMEscan assay
# [17] = molecular target: Vascular endothelial growth factor receptor 2 (Homo sapiens, UniProt P35968); assay: Inhibition of VEGFR2 (unknown origin) by DiscoverX KINOMEscan assay
# [18] = molecular target: Epithelial discoidin domain-containing receptor 1 (Homo sapiens, UniProt Q08345); assay: Inhibition of DDR1 (unknown origin) by DiscoverX KINOMEscan assay
# BaF3 [19] = assay: Antiproliferative activity against mouse BaF3 cells expressing CCDC6-RET incubated for 72 hrs by CCK8 assay; assay type: functional, cell-based; settings: BaF3, 72 h
# [20] = Bioavailability in fasted Sprague-Dawley rat at 25 mg/kg, po; assay type: ADME, organism-based; settings: in vivo
# [21] = Tmax in fasted Sprague-Dawley rat at 25 mg/kg, po; assay type: ADME, organism-based; settings: in vivo
# [22] = AUC (0 to infinity) in Sprague-Dawley rat at 5 mg/kg, iv; assay type: ADME, organism-based; set-up: dose 5 mg/kg, route iv; settings: in vivo
# [23] = molecular target: Proto-oncogene tyrosine-protein kinase receptor Ret (Mus musculus) (UniProt P35546); assay: Inhibition of RET signalling pathway in mouse BaF3 cells harboring CCDC6-RET-V804M mutant assessed as suppression of RET phosphorylation at 33.3 nM incubated for 4 hrs by Western blot analysis; assay type: cell-based
# [24] = molecular target: Proto-oncogene tyrosine-protein kinase receptor Ret (Mus musculus) (UniProt P35546); assay: Inhibition of RET signalling pathway in mouse BaF3 cells harboring CCDC6-RET-G810C mutant assessed as suppression of RET phosphorylation at 33.3 nM incubated for 4 hrs by Western blot analysis; assay type: cell-based
# [25] = molecular target: Proto-oncogene tyrosine-protein kinase receptor Ret (Mus musculus) (UniProt P35546); assay: Inhibition of RET signalling pathway in mouse BaF3 cells harboring CCDC6-RET assessed as suppression of RET phosphorylation at 33.3 nM incubated for 4 hrs by Western blot analysis; assay type: cell-based
# BaF3 [26] = assay: Antiproliferative activity against mouse BaF3 cells expressing CCDC6-RET-G810R incubated for 72 hrs by CCK8 assay; assay type: functional, cell-based; settings: BaF3, 72 h
# BaF3 [27] = assay: Antitumor activity against mouse BaF3 cells expressing CCDC6-RET-V804M xenografted in CB17-SCID mouse model assessed as tumor growth inhibition at 60 mg/kg, po qd via gavage for 14 days relative to control; assay type: functional; settings: BaF3, 336 h, time 14 day, read-out: TGI
# BaF3 [28] = assay: Antitumor activity against mouse BaF3 cells expressing CCDC6-RET-V804M xenografted in CB17-SCID mouse model assessed as tumor growth inhibition at 30 mg/kg, po qd via gavage for 14 days relative to control; assay type: functional; settings: BaF3, 336 h, time 14 day, read-out: TGI
# [29] = molecular target: Proto-oncogene tyrosine-protein kinase receptor Ret (Mus musculus) (UniProt P35546); assay: Inhibition of RET signalling pathway in mouse BaF3 cells harboring CCDC6-RET-G810C mutant assessed as suppression of SHC activation at 33.3 nM incubated for 4 hrs by Western blot analysis; assay type: cell-based
# [30] = Toxicity in CB17-SCID mouse model xenografted with mouse BaF3 cells expressing CCDC6-RET-V804M assessed as body weight loss at 30 to 60 mg/kg, po qd via gavage for 14 days; assay type: organism-based; settings: in vivo, 336 h, dose 30-60 mg/kg, time 14 day
# [31] = molecular target: Epidermal growth factor receptor (Homo sapiens, UniProt P00533); assay: Inhibition of EGFR (unknown origin) by DiscoverX KINOMEscan assay
# [32] = Half life in Sprague-Dawley rat at 5 mg/kg, iv; assay type: ADME, organism-based; settings: in vivo
# [33] = molecular target: Platelet-derived growth factor receptor beta (Homo sapiens, UniProt P09619); assay: Inhibition of PDGFRB (unknown origin) by DiscoverX KINOMEscan assay
# [34] = molecular target: Macrophage colony-stimulating factor 1 receptor (Homo sapiens, UniProt P07333); assay: Inhibition of CSF1R (unknown origin) by DiscoverX KINOMEscan assay
# T1 sequence (P07949 whole entry): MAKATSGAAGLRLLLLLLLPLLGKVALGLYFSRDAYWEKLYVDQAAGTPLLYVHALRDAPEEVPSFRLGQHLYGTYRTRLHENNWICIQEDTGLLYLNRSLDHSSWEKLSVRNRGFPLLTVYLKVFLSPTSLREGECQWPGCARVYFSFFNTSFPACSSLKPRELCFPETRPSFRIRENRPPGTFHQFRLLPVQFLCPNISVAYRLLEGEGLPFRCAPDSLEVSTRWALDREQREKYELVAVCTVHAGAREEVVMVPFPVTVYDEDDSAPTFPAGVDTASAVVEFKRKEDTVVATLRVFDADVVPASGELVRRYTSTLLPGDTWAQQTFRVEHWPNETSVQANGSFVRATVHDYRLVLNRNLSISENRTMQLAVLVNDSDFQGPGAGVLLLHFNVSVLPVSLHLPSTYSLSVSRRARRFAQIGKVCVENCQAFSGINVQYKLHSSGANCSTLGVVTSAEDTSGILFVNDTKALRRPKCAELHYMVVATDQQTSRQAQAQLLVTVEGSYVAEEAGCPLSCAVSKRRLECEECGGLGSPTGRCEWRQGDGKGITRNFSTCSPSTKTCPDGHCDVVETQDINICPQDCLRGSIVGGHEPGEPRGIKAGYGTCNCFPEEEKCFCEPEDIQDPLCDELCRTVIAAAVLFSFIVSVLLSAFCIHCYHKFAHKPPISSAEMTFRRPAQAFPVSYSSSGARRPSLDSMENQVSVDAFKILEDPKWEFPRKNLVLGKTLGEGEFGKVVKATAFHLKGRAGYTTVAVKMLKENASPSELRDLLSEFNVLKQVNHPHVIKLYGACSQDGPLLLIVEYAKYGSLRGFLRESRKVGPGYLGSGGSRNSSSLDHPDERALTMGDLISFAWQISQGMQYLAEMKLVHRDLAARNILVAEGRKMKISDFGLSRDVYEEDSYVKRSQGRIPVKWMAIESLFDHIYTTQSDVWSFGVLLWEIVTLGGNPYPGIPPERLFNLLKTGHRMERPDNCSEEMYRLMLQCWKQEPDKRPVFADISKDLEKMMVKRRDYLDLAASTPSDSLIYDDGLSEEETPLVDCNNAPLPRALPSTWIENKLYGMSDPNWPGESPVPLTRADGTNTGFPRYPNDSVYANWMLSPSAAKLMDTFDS
# Proto-oncogene tyrosine-protein kinase receptor Ret (Mus musculus), sequence (P35546 whole entry): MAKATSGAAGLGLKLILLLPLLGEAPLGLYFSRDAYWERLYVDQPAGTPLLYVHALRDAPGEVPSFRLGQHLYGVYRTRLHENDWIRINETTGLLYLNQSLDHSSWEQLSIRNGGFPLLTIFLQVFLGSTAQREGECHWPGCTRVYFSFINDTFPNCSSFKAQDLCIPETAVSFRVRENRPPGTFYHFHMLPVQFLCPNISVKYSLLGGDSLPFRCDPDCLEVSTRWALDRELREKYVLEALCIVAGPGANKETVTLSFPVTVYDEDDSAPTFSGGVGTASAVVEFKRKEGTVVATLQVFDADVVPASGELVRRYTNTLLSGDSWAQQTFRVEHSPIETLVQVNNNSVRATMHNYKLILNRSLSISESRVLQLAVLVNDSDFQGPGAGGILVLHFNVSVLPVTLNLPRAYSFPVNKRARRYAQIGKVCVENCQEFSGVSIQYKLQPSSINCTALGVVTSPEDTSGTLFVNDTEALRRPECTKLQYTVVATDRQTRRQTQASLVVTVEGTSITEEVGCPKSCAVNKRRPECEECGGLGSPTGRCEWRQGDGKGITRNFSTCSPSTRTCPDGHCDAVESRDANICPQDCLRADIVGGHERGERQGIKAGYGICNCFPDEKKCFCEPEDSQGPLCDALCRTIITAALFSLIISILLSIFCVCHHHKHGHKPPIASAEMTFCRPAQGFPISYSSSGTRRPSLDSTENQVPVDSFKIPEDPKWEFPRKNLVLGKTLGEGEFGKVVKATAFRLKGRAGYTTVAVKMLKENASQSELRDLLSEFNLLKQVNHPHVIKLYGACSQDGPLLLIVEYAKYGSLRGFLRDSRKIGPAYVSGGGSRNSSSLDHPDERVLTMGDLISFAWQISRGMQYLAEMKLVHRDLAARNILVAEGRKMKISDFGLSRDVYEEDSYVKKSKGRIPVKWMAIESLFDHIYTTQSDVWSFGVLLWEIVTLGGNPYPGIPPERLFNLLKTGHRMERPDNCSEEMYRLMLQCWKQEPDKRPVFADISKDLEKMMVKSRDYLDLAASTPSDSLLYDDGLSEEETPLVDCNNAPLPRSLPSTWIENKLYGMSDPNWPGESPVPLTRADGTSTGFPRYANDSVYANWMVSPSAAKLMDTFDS
# Platelet-derived growth factor receptor beta, sequence (P09619 whole entry): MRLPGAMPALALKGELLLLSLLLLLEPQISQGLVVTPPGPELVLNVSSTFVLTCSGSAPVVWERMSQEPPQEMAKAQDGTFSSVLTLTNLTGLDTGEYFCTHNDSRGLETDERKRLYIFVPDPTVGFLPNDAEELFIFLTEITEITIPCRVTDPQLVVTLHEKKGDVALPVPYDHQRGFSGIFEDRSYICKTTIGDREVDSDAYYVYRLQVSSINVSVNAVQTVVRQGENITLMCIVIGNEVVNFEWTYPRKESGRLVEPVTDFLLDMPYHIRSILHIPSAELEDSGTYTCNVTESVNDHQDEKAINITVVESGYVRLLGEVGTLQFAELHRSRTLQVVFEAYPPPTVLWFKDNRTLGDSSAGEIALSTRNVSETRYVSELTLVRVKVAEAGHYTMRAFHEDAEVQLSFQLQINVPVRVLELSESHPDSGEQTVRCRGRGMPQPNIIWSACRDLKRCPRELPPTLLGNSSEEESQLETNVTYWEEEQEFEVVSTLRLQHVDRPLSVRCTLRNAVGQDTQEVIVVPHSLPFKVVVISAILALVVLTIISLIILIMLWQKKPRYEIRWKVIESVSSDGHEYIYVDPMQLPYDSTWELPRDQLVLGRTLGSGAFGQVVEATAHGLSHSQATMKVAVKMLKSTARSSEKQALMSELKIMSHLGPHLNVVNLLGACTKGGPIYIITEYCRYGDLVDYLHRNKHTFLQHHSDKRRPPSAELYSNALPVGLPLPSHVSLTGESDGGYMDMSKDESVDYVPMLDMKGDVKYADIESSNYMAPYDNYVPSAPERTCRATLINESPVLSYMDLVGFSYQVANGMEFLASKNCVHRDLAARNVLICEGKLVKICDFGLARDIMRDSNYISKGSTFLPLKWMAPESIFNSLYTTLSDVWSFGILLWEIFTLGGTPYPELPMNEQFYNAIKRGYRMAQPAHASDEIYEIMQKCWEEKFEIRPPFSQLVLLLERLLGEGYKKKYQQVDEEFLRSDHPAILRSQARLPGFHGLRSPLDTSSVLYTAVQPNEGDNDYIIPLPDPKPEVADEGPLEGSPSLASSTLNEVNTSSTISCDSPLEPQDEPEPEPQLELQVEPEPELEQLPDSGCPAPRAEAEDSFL
# Epithelial discoidin domain-containing receptor 1, sequence (Q08345 whole entry, the tested form may be a part): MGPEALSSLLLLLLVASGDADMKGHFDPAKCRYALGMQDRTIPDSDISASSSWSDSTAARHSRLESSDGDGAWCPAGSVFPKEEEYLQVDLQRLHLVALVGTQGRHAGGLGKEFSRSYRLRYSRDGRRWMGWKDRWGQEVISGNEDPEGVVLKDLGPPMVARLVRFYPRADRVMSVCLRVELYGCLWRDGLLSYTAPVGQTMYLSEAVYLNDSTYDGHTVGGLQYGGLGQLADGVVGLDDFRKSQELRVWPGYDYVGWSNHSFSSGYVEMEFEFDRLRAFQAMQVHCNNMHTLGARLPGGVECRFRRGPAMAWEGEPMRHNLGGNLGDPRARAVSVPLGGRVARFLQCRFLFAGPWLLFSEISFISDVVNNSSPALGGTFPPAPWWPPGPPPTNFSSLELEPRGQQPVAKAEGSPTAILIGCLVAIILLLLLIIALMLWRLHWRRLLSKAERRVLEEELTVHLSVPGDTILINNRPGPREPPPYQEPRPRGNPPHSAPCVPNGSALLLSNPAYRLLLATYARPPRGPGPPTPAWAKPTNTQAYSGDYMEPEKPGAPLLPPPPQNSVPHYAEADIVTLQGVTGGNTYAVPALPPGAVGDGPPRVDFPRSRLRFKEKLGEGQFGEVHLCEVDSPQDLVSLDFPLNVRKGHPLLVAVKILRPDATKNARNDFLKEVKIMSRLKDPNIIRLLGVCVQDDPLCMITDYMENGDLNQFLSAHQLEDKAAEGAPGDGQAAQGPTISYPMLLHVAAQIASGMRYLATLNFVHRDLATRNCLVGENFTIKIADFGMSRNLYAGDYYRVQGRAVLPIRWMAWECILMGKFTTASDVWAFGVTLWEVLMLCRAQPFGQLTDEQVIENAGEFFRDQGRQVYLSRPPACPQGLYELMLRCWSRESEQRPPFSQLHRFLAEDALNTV
smiles,measurement,setting,value
CC(C)(c1cc(NC(=O)Nc2ccc(-c3cc(-c4ccc(OCCN5CCOCC5)cc4)[nH]n3)cc2)no1)C(F)(F)F,Activity,[1],Non-Toxic
same,inhibition,[2],Active
same,IC50,[3],20.9 nM
same,Kd,[4],6.5 nM
same,IC50,BaF3 [5],84.6 nM
same,IC50,[6],45.1 nM
same,AUC(0-inf),[7],43800 ng·h/mL
same,Cmax,[8],2060 ng/mL
same,half-life,[9],12.4 h
same,inhibition,[10],Active
same,Cmax,[11],9970 ng/mL
same,IC50,BaF3 [12],12.1 nM
same,inhibition,[13],Dose-Dependent Effect
same,IC50,BaF3 [14],3870 nM
same,inhibition,[15],Dose-Dependent Effect
same,IC50,[16],18.3 nM
same,IC50,[17],380 nM
same,IC50,[18],66.6 nM
same,IC50,BaF3 [19],13.6 nM
same,bioavailability,[20],21.1%
same,Tmax,[21],6.7 h
same,AUC(0-inf),[22],32500 ng·h/mL
same,inhibition,[23],Active
same,inhibition,[24],Active
same,inhibition,[25],Active
same,IC50,BaF3 [26],401 nM
same,inhibition in vivo at 60 mg/kg,BaF3 [27],94.6%
same,inhibition in vivo at 30 mg/kg,BaF3 [28],83.6%
same,inhibition,[29],Active
same,Activity,[30],Non-Toxic
same,IC50,[31],> 1000 nM
same,half-life,[32],8.8 h
same,IC50,[33],16.3 nM
same,IC50,[34],108 nM
COc1cc(NC(=O)Nc2cc(C(C)(C)C)on2)ccc1-c1cc(-c2ccc(OCCN3CCOCC3)cc2)[nH]n1,Kd,[4],32 nM
same,IC50,BaF3 [5],1130 nM
same,IC50,BaF3 [12],437 nM
same,IC50,BaF3 [14],625 nM
same,IC50,BaF3 [19],387 nM
same,IC50,BaF3 [26],984 nM
CC(C)(C)c1cc(NC(=O)Nc2ccc(-c3cc(-c4ccc(OCCN5CCOCC5)cc4Br)[nH]n3)cc2)no1,Kd,[4],15.5 nM
same,IC50,BaF3 [5],606 nM
same,IC50,BaF3 [12],62 nM
same,IC50,BaF3 [14],1210 nM
same,IC50,BaF3 [19],67 nM
same,IC50,BaF3 [26],1280 nM
Cc1cc(OCCN2CCOCC2)ccc1-c1cc(-c2ccc(NC(=O)Nc3cc(C(C)(C)C)on3)cc2)n[nH]1,Kd,[4],12.5 nM
same,IC50,BaF3 [5],2040 nM
same,IC50,BaF3 [12],173 nM
same,IC50,BaF3 [14],> 3000 nM
same,IC50,BaF3 [19],120 nM
same,IC50,BaF3 [26],1960 nM
CC(C)(C)c1cc(NC(=O)Nc2ccc(-c3n[nH]c(-c4ccc(OCCN5CCOCC5)cc4Cl)n3)cc2)no1,Kd,[4],10.2 nM
same,IC50,BaF3 [5],682 nM
same,IC50,BaF3 [12],339 nM
same,IC50,BaF3 [14],424 nM
same,IC50,BaF3 [19],328 nM
same,IC50,BaF3 [26],869 nM
COc1cc(-c2cc(-c3ccc(NC(=O)Nc4cc(C(C)(C)C)on4)c(F)c3)n[nH]2)ccc1OCCN1CCOCC1,Kd,[4],10.2 nM
same,IC50,BaF3 [5],122 nM
same,IC50,BaF3 [12],7.4 nM
same,IC50,BaF3 [14],> 10000 nM
same,IC50,BaF3 [19],6.7 nM
same,IC50,BaF3 [26],313 nM
CC(C)(C)c1cc(NC(=O)Nc2ccc(-c3cc(-c4ccc(OCCN5CCOCC5)cc4)[nH]n3)cc2)no1,inhibition,[2],Active
same,IC50,[3],16.1 nM
same,Kd,[4],4.3 nM
same,IC50,BaF3 [5],89.8 nM
same,IC50,[6],21.6 nM
same,AUC(0-inf),[7],20500 ng·h/mL
same,Cmax,[8],1250 ng/mL
same,half-life,[9],6.9 h
same,inhibition,[10],Active
same,Cmax,[11],10700 ng/mL
same,IC50,BaF3 [12],9.4 nM
same,inhibition,[13],Dose-Dependent Effect
same,IC50,BaF3 [14],1230 nM
same,inhibition,[15],Dose-Dependent Effect
same,IC50,[16],15.4 nM
same,IC50,[17],331 nM
same,IC50,[18],9 nM
same,IC50,BaF3 [19],9.3 nM
same,bioavailability,[20],23.6%
same,Tmax,[21],6 h
same,AUC(0-inf),[22],15600 ng·h/mL
same,inhibition,[23],Active
same,inhibition,[24],Active
same,inhibition,[25],Active
same,IC50,BaF3 [26],549 nM
same,inhibition,[29],Active
same,IC50,[31],> 1000 nM
same,half-life,[32],3.3 h
same,IC50,[33],24.4 nM
same,IC50,[34],33 nM
CC(C)(C)c1cc(NC(=O)Nc2ccc(-c3c[nH]c(-c4ccc(OCCN5CCOCC5)cc4Cl)n3)cc2)no1,Kd,[4],31.5 nM
same,IC50,BaF3 [5],802 nM
same,IC50,BaF3 [12],491 nM
same,IC50,BaF3 [14],772 nM
same,IC50,BaF3 [19],404 nM
same,IC50,BaF3 [26],716 nM
CC(C)(C)c1cc(NC(=O)Nc2ccc(-c3cc(-c4ccc(OCCN5CCOCC5)cc4)[nH]n3)cc2Cl)no1,Kd,[4],21 nM
same,IC50,BaF3 [5],335 nM
same,IC50,BaF3 [12],36 nM
same,IC50,BaF3 [14],> 10000 nM
same,IC50,BaF3 [19],29 nM
same,IC50,BaF3 [26],746 nM
CC(C)(C)c1cc(NC(=O)Nc2ccc(-c3cc(-c4ccc(OCCN5CCOCC5)cc4)[nH]n3)cc2F)no1,Kd,[4],8.1 nM
same,IC50,BaF3 [5],99.9 nM
same,IC50,BaF3 [12],6.6 nM
same,IC50,BaF3 [14],> 3000 nM
same,IC50,BaF3 [19],7.1 nM
same,IC50,BaF3 [26],1320 nM
